Source: patent US7989451B2, “Tricyclic 1,2,4-triazine oxides and compositions for therapeutic use in cancer treatments” (Auckland Uniservices Limited, priority 2005, dated 2011)
Read-outs that look alike come from different tables or passages of the source. One block for each molecule: values may come before it.

Experiments:
[1] = system: human cervical carcinoma SiHa; experiment: Proliferation assay (IC50) under aerobic and hypoxic conditions, SiHa; format: cell-based; settings: for IC50: Homo sapiens, 4 h drug exposure, sulforhodamine B; for HCR: hypoxic cytotoxicity ratio = IC50 aerobic/IC50 hypoxic
Method: (§1) Compounds representative of the invention were evaluated under both aerobic and hypoxic conditions in a proliferation assay (IC50), using two cell lines: human colon carcinoma HT29, and human cervical carcinoma SiHa (Table 1).
(§2) Drug exposures were performed in 96-well plates (Nunc) either using a 37 DC humidified incubator (20% O2, 5% CO2) or in the incubator compartment (37° C.) of an anaerobic chamber (Shell Lab) where palladium catalyst scrubbed gas (90% N2, 5% H2, 5% CO2) ensures severe anoxia (<0.001% O2). For each experiment, compounds were simultaneously tested under both oxic and hypoxic conditions and included TPZ as an internal control. An 8-methyl-5-nitroquinoline derivative, SN 24349, known to require very low oxygen concentrations for bioactivation (Siim et al., Br. J. Cancer 1994, 70, 596-603) was used to confirm that strict hypoxia was present during the experiment. […] Cell cultures were grown in αMEM (Gibco) containing 5% heat inactivated FCS and maintained in exponential growth phase. For each individual experiment an appropriate number of cells were seeded (HT29=1100; SiHa=1500) into wells in αMEM+10% FCS+10 mM added glucose+100 μM 2′-deoxycytidine (2′dCyd), and allowed to attach for 2-3 h. High glucose (final concentration 17 mM) and the presence of 2′-dCyd minimize hypoxia-induced cell cycle arrest. Cultures were then exposed to drugs, using 3-fold serial dilutions in duplicate, for a further 4 h. Subsequently cells were washed free of compound using complete media (without glucose/2′-dCyd) and allowed to grow for 5 (oxic) or 6 (anoxic) days. Plates were stained with sulforhodamine B as described previously (Wilson et al., J. Med. Chem. 1989, 32, 31-38) and IC50 values determined.
(§3) HCR=Hypoxic cytotoxicity ratio is defined as the ratio of IC50 values under aerobic and hypoxic conditions (IC50 aerobic/IC50 hypoxic).

[2] = system: human colon carcinoma HT29; experiment: Proliferation assay (IC50) under aerobic and hypoxic conditions, HT29; format: cell-based; settings: for IC50: Homo sapiens, 4 h drug exposure, sulforhodamine B; for HCR: hypoxic cytotoxicity ratio = IC50 aerobic/IC50 hypoxic
Method: as §1, §2, §3

[3] = hypoxic (anaerobic chamber, <0.001% O2), then 6 days growth, read-out: IC50 (μM) hypoxic
[4] = oxic (20% O2), then 5 days growth, read-out: IC50 (μM) oxic
[5] = HT-29, hypoxic (anaerobic chamber, <0.001% O2), then 6 days growth, read-out: IC50 (μM) hypoxic
[6] = HT-29, oxic (20% O2), then 5 days growth, read-out: IC50 (μM) oxic

SMILES: CCN(CC)CCNc1n[n+]([O-])c2c3c(ccc2[n+]1[O-])CCC3 [Compound 9, N^1,N^1-Diethyl-N^2-(1,4-dioxido-8,9-dihydro-7H-indeno[5,4-e][1,2,4]triazin-3-yl)-1,2-ethanediamine]
melting point: 138 to 141 °C
IC50 [1, 3]: 0.9 ± 0.2 µM
IC50 [1, 4]: 59 ± 4 µM
HCR [1]: 64 ± 4
IC50 [2, 5]: 4.2 ± 1.5 µM
IC50 [2, 6]: 72 ± 22 µM
HCR [2]: 17 ± 5

SMILES: CCCN(CCC)CCNc1nc2ccc3c(c2[n+]([O-])n1)CCC3 [Compound 11, N^1-(1-Oxido-8,9-dihydro-7H-indeno[5,4-e][1,2,4]triazin-3-yl)-N^2,N^2-dipropyl-1,2-ethanediamine]
melting point: 133 to 135 °C
IC50 [1, 3]: 3.3 ± 0.3 µM
IC50 [1, 4]: 74 ± 27 µM
HCR [1]: 23 ± 10
IC50 [2, 5]: 12.4 µM
IC50 [2, 6]: 99 ± 9 µM
HCR [2]: 7

SMILES: Nc1n[n+]([O-])c2cc3c(cc2[n+]1[O-])CCC3 [Compound 20, 7,8-Dihydro-6H-indeno[5,6-e][1,2,4]triazin-3-amine 1,4-Dioxide]
melting point: 190 to 195 °C
IC50 [1, 3]: 8.3 ± 0.4 µM
IC50 [1, 4]: 253 ± 30 µM
HCR [1]: 31 ± 5
IC50 [2, 5]: 15 ± 6 µM
IC50 [2, 6]: 387 ± 108 µM
HCR [2]: 27 ± 2

SMILES: CN(C)CCNc1n[n+]([O-])c2cc3c(cc2[n+]1[O-])CCC3 [Compound 23, N^1-(1,4-Dioxido-7,8-dihydro-6H-indeno[5,6-e][1,2,4]triazin-3-yl)-N^2,N^2-dimethyl-1,2-ethanediamine]
melting point: 150 to 153 °C
IC50 [1, 3]: 0.7 ± 0.3 µM
IC50 [1, 4]: 105 ± 21 µM
HCR [1]: 111 ± 5
IC50 [2, 5]: 2.3 ± 0.6 µM
IC50 [2, 6]: 318 ± 14 µM
HCR [2]: 152 ± 35

SMILES: CCCN(CCC)CCNc1n[n+]([O-])c2cc3c(cc2[n+]1[O-])CCC3 [Compound 29, N^1-(1,4-Dioxido-7,8-dihydro-6H-indeno[5,6-e][1,2,4]triazin-3-yl)-N^2,N^2-dipropyl-1,2-ethanediamine]
melting point: 142 to 145 °C
IC50 [1, 3]: 0.7 µM
IC50 [1, 4]: 63 µM
HCR [1]: 91
IC50 [2, 5]: 2.5 µM
IC50 [2, 6]: 196 µM
HCR [2]: 77

SMILES: [O-][n+]1nc(NCCN2CCCCC2)[n+]([O-])c2cc3c(cc21)CCC3 [Compound 37, N-[2-(1-Piperidinyl)ethyl]-7,8-dihydro-6H-indeno[5,6-e][1,2,4]triazin-3-amine 1,4-Dioxide]
melting point: 165 to 168 °C
IC50 [1, 3]: 1.3 ± 0.4 µM
IC50 [1, 4]: 101 ± 25 µM
HCR [1]: 143
IC50 [2, 5]: 5.8 ± 2.9 µM
IC50 [2, 6]: 186 ± 58 µM
HCR [2]: 49 ± 35

SMILES: CCN1Cc2cc3nc(N)n[n+]([O-])c3cc2C1 [Compound 249, 7-Ethyl-7,8-dihydro-6H-[1,2,4]triazino[5,6-f]isoindol-3-amine 1-Oxide]
melting point: 218 °C

SMILES: CN1CCc2cc3c(cc2C1)nc(N)n[n+]3[O-] [Compound 256, 7-Methyl-6,7,8,9-tetrahydro[1,2,4]triazino[6,5-g]isoquinolin-3-amine 1-Oxide]
melting point: 170 to 175 °C

SMILES: CCNc1nc2cc3c(cc2[n+]([O-])n1)CCN(C)C3 [Compound 258, N-Ethyl-7-methyl-6,7,8,9-tetrahydro[1,2,4]triazino[6,5-g]isoquinolin-3-amine 1-Oxide]
melting point: 193 to 196 °C

SMILES: CCc1nc2ccc3c(c2[n+]([O-])n1)CN(C)CC3 [Compound 264, 3-Ethyl-9-methyl-7,8,9,10-tetrahydro[1,2,4]triazino[5,6-h]isoquinoline 1 Oxide]
melting point: 99 to 102 °C

SMILES: CCc1n[n+]([O-])c2c3c(ccc2[n+]1[O-])CCN(C)C3 [Compound 265, 3-Ethyl-9-methyl-7,8,9,10-tetrahydro[1,2,4]triazino[5,6-h]isoquinoline 1,4-Dioxide]
melting point: 117 to 121 °C

Continued, in another order:

melting point: 153 to 156 °C
IC50 [1, 3]: 1.6 µM
IC50 [1, 4]: 226 ± 46 µM
IC50 [2, 5]: 3 µM
IC50 [2, 6]: 255 ± 53 µM
SMILES: CN(C)CCNc1n[n+]([O-])c2c3c(ccc2[n+]1[O-])CCC3 [Compound 7, N^1,N^1-Dimethyl-N^2-(1,4-dioxido-8,9-dihydro-7H-indeno[5,4-e][1,2,4]triazin-3-yl)-1,2-ethanediamine]
HCR [1]: 99
HCR [2]: 67

melting point: 138 to 141 °C
IC50 [1, 3]: 1 ± 0.1 µM
IC50 [1, 4]: 52 ± 8 µM
IC50 [2, 5]: 4.9 ± 0.6 µM
IC50 [2, 6]: 251 ± 24 µM
SMILES: [O-][n+]1nc(NCCN2CCCCC2)[n+]([O-])c2ccc3c(c21)CCC3 [Compound 13, N-[2-(1-Piperidinyl)ethyl]-8,9-dihydro-7H-indeno[5,4-e][1,2,4]triazin-3-amine 1,4-Dioxide]
HCR [1]: 51 ± 1
HCR [2]: 53 ± 11

melting point: 187 to 188 °C
IC50 [1, 3]: 17.7 ± 0.6 µM
IC50 [1, 4]: 751 µM
IC50 [2, 5]: 47 ± 4 µM
IC50 [2, 6]: 1520 µM
SMILES: [O-][n+]1nc(NCCO)[n+]([O-])c2cc3c(cc21)CCC3 [Compound 25, 2-[(1,4-Dioxido-7,8-dihydro-6H-indeno[5,6-e][1,2,4]triazin-3-yl)amino]ethanol]
HCR [1]: 42
HCR [2]: 32

melting point: 58 to 61 °C
IC50 [1, 3]: 2.5 ± 0.8 µM
IC50 [1, 4]: 162 ± 48 µM
IC50 [2, 5]: 5.9 ± 0.8 µM
IC50 [2, 6]: 172 ± 100 µM
SMILES: COCCN(C)CCNc1n[n+]([O-])c2cc3c(cc2[n+]1[O-])CCC3 [Compound 31, N^1-(1,4-Dioxido-7,8-dihydro-6H-indeno[5,6-e][1,2,4]triazin-3-yl)-N^2-(2-methoxyethyl)-N2-methyl-1,2-ethanediamine]
HCR [1]: 67 ± 2
HCR [2]: 26 ± 12

melting point: 129 to 131 °C
IC50 [1, 3]: 2 ± 1.1 µM
IC50 [1, 4]: 152 ± 38 µM
IC50 [2, 5]: 6.3 ± 2.1 µM
IC50 [2, 6]: 315 ± 84 µM
SMILES: COCCCN(C)CCNc1n[n+]([O-])c2cc3c(cc2[n+]1[O-])CCC3 [Compound 33, N^1-(1,4-Dioxido-7,8-dihydro-6H-indeno[5,6-e][1,2,4]triazin-3-yl)-N^2-(3-methoxypropyl)-N^2-methyl-1,2-ethanediamine]
HCR [1]: 92 ± 30
HCR [2]: 52 ± 4

melting point: 152 °C (dec.)
IC50 [1, 3]: 1.8 ± 0.2 µM
IC50 [1, 4]: 108 ± 8 µM
IC50 [2, 5]: 3.4 ± 0.1 µM
IC50 [2, 6]: 165 ± 10 µM
SMILES: COC1CN(CCNc2n[n+]([O-])c3cc4c(cc3[n+]2[O-])CCC4)C1 [Compound 35, N-[2-(3-Methoxy-1-azetidinyl)ethyl]-7,8-dihydro-6H-indeno[5,6-e][1,2,4]triazin-3-amine 1,4-Dioxide]
HCR [1]: 61 ± 10
HCR [2]: 49 ± 5

melting point: 179 °C (dec.)
SMILES: CN1CCc2cc3c(cc2C1)nc(Cl)n[n+]3[O-] [Compound 257, 3-Chloro-7-methyl-6,7,8,9-tetrahydro[1,2,4]triazino[6,5-g]isoquinoline 1-Oxide]

melting point: 129 to 131 °C
SMILES: CCc1nc2cc3c(cc2[n+]([O-])n1)CCN(C)C3 [Compound 260, 3-Ethyl-7-methyl-6,7,8,9-tetrahydro[1,2,4]triazino[6,5-g]isoquinoline 1-Oxide]

melting point: 226 to 229 °C
SMILES: CN1CCc2ccc3nc(N)n[n+]([O-])c3c2C1 [Compound 262, 9-Methyl-7,8,9,10-tetrahydro[1,2,4]triazino[5,6-h]isoquinolin-3-amine 1-Oxide]

melting point: 200 to 205 °C
SMILES: CN1CCc2ccc3nc(Cl)n[n+]([O-])c3c2C1 [Compound 263, 3-Chloro-9-methyl-7,8,9,10-tetrahydro[1,2,4]triazino[5,6-h]isoquinoline 1 Oxide]
